Reference: patent US11116736B2, “2-amino-N'-benzylideneacetohydrazides and derivatives for the management of CFTR protein mediated diseases” (Emory University, priority 2015, dated 2021)
Like-named read-outs stand apart in the source and are kept apart here.

Tests used:
WT-hCFTR [1] = target: T1, WT-hCFTR (Homo sapiens, UniProt P13569); assay: Two-electrode voltage clamp (TEVC) on wildtype hCFTR expressed in Xenopus oocytes; format: cell-based; conditions: for effect on hCFTR current (block / potentiation), in words / Kd: ~50 s extracellular exposure; for Kd: VM=−60 mV
T1 construct: expressed in transfected cells; host or cells: Xenopus laevis oocytes injected with cRNA (pGEMHE construct from Dr. D. Gadsby)
T1 sequence (P13569 whole entry): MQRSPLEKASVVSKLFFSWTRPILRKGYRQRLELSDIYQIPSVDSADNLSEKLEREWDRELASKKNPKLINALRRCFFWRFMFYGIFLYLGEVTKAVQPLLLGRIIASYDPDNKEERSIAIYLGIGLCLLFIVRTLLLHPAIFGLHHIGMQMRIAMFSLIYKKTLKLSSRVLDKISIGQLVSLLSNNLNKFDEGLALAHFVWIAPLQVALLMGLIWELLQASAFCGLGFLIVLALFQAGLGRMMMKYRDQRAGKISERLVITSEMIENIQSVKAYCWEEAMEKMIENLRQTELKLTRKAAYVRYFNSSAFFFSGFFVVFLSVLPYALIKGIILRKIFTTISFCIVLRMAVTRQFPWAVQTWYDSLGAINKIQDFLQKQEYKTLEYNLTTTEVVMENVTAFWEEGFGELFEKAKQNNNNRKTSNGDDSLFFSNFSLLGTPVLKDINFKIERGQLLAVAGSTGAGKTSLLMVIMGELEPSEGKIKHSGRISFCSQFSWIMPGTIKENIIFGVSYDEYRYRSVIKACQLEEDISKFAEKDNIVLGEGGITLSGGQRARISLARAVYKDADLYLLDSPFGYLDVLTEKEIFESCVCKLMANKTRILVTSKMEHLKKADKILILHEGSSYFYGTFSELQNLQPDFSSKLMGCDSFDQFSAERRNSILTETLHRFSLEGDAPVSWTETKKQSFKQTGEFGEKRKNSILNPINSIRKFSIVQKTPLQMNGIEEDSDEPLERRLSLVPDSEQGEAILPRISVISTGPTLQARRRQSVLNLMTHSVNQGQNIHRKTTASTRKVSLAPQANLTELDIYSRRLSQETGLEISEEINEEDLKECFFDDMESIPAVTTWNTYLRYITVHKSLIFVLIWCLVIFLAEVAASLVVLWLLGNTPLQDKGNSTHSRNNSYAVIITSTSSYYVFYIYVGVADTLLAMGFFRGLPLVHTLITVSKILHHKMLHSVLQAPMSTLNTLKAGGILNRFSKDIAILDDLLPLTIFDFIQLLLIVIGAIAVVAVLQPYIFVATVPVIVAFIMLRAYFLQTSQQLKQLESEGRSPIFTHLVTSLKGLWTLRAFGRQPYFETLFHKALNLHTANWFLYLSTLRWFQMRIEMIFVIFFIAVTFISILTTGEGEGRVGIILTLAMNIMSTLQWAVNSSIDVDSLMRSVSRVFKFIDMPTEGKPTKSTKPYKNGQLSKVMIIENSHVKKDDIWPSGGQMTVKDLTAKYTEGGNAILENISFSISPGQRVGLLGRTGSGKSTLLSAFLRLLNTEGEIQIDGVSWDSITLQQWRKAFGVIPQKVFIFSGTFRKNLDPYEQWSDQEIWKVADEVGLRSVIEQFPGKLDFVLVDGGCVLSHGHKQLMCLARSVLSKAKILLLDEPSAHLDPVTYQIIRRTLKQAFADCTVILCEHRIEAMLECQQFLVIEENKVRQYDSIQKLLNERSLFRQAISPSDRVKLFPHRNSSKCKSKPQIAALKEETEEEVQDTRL
Description: The effects of OSSK-2 and OSSK-3 on hCFTR were tested by expression in Xenopus oocytes. Representative current traces using the two-electrode voltage clamp technique (TEVC) are shown in FIGS. 2A and 2B for OSSK-3 and FIG. 2C for OSSK-2.
(§1) Human CFTR cRNAs used in electrophysiology experiments were prepared from constructs encoding WT-hCFTR in the pGEMHE vector (hCFTR/pGEMHE kindly provided by Dr. D. Gadsby, Rockefeller University). The mutants of hCFTR used in this study were prepared using site-directed mutagenesis with the Quikchange protocol (Stratagene, La Jolla, Calif.) and mutant constructs were verified by sequencing across the entire open reading frame before use. Xenopus laevis oocytes were injected with 0.4-10 ng of CFTR cRNAs, and were incubated at 17° C. in modified Liebovitz's L-15 media with the addition of HEPES (pH 7.5), penicillin, and streptomycin. Recordings were made typically 24-96 hours after the injection of cRNAs.
(§2) Standard two-electrode voltage clamp (TEVC) techniques were used to study the effects of chemicals with application of reagents to the extracellular bath. Each oocyte was injected with CFTR cRNA along with cRNA encoding the beta2-adrenergic receptor (β2AR). Electrode resistances measured 0.5-1.4 MΩ when filled with 3 M KCl and measured in standard ND96 bath solution that contained (in mM): 96 NaCl, 2 KCl, 1 MgCl2, and 5 HEPES (pH 7.5). CFTR channels were activated by exposure to 10 μM isoproterenol (ISO) in ND 96 and alternatively assayed in the presence or absence of different concentrations of compounds in the bath solution, typically in the continuing presence of ISO. Currents were acquired with an Axoclamp 900A amplifier and Clampex 10.2 software, and current data were digitized at 2 kHz.

F508del-hCFTR = target: T2, F508del-hCFTR (Homo sapiens, UniProt P13569, DEL508-508); assay: Two-electrode voltage clamp (TEVC) on F508del-hCFTR expressed in Xenopus oocytes; format: cell-based; conditions: for potentiation of F508del-hCFTR, summary in words: FIGS. 4A and 4B under modified conditions
T2 construct: expressed in transfected cells; host or cells: Xenopus laevis oocytes injected with cRNA; The mutant was made by Quikchange mutagenesis of hCFTR/pGEMHE
T2 sequence (P13569 with tags, fused parts or gaps DEL508-508): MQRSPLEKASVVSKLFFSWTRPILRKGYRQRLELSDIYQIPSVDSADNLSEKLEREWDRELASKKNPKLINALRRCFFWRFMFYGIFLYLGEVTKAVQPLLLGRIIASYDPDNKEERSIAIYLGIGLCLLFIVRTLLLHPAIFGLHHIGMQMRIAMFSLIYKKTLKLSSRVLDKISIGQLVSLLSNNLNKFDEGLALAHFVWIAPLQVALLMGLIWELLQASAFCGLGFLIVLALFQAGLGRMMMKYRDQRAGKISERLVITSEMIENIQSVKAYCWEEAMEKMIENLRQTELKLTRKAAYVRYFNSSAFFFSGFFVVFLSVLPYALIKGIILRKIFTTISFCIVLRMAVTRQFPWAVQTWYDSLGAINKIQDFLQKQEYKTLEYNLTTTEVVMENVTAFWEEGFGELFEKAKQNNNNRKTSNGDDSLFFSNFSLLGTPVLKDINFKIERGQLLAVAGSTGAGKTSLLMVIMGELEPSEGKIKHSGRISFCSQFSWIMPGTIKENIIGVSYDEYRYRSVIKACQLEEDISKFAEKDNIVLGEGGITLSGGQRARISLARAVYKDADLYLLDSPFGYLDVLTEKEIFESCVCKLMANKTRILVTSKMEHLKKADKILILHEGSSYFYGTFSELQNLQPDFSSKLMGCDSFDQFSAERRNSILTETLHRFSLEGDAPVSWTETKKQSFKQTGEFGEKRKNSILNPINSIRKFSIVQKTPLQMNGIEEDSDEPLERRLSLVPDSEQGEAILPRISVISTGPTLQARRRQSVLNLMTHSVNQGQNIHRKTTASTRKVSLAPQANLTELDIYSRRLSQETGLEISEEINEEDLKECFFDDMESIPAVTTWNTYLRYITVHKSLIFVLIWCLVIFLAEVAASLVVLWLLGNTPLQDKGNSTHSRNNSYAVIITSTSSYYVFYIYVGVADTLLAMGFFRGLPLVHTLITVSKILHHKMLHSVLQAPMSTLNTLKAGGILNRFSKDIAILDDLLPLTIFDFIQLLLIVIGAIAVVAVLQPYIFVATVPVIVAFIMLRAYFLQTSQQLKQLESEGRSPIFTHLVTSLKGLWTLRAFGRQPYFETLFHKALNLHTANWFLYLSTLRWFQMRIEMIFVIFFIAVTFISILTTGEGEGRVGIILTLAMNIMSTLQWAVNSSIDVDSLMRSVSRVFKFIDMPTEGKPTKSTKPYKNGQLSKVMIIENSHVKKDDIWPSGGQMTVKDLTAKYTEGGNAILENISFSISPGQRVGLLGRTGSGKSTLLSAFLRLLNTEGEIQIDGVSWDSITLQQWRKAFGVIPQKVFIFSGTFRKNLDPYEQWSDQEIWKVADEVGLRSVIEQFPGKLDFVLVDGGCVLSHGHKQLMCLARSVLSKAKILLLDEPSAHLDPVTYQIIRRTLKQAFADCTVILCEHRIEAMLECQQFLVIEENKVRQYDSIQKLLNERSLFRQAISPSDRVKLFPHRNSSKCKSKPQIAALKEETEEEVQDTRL
Description: Nearly 90% of CF patients in the United States bear at least one F508del-CFTR allele; OSSK-3, and OSSK-2 were studied on F508del-hCFTR using the TEVC technique at VM=−60 mV.
as §1, §2

WT-hCFTR [2] = target: T1, WT-hCFTR; conditions: cited from earlier work
multiple CFTR mutations = conditions: cited from earlier work

Compound	potentiation of WT-hCFTR, summary in words (WT-hCFTR [1])	effect on hCFTR current (block / potentiation), in words (WT-hCFTR [1])	potentiation of F508del-hCFTR, summary in words (F508del-hCFTR)	Kd (WT-hCFTR [1]; read-out: apparent Kd for block of hCFTR) [µM]	Kd (WT-hCFTR [1]; read-out: apparent Kd for potentiation of hCFTR) [µM]	effect on F508del-hCFTR current (block / potentiation), in words (F508del-hCFTR; VM=−60 mV, 5 μM, ~50 s extracellular exposure)	potentiation of WT-hCFTR, in words (WT-hCFTR [2])	potentiation of mutant CFTR, in words (multiple CFTR mutations)
Cc1cccc(NCC(=O)N/N=C/c2cc(Br)c(O)c(Br)c2O)c1 [OSSK-2, (E)-N′-(3,5-dibromo-2,4-dihydroxybenzylidene)-2-(m-tolylamino)acetohydrazide]	mildly potentiate WT-hCFTR	very weak block on hCFTR without obvious potentiation	very strongly potentiate F508del-hCFTR	–	–	–	–	–
Cc1ccc(NCC(=O)N/N=C/c2cc(Br)c(O)c(Br)c2O)cc1 [OSSK-3, (E)-N′-(3,5-dibromo-2,4-dihydroxybenzylidene)-2-(p-tolylamino)acetohydrazide]	mildly potentiate WT-hCFTR	both block as well as potentiation of hCFTR	very strongly potentiate F508del-hCFTR	33	0.0317	very weak initial block that was followed by significantly stronger potentiation compared to the potentiation of WT-hCFTR	–	–
CC(C)(C)c1cc(C(C)(C)C)c(NC(=O)c2c[nH]c3ccccc3c2=O)cc1O [VX-770, ivacaftor]	–	–	–	–	–	–	only mildly potentiates WT-hCFTR	strongly potentiates multiple CFTR mutations
